2 compounds from patent US20070078620A1, “Methods and kits for delivering pharmaceutical agents into the coronary vascular adventitia” (Mercator MedSystems Inc., priority 2002, published 2007) can be followed below.

The conditions of series [1]: two injections of 0.5 mL 5% silver nitrate into each iliac artery; hematoxylin-eosin stained sections.
Text: The animal was sacrificed according to approved protocol following the last injection. The arteries were removed and placed in 10% formalin without perfusion. 2 mm segments were embedded in paraffin, sectioned, and hematoxylin-eosin stained.
Series [2] in a line: Distribution of a lipophilic compound (tacrolimus) after periadventitial delivery to coronary arteries, LC/MS of tissue. In kind it is in vivo, swine. Particulars: for concentration at 48 h: swine, in vivo. How it is done:
Distribution of a lipophilic compound (tacrolimus): Eight swine underwent angiography. […] The two remaining arteries served as untreated controls. An untreated heart was used as a negative control. At 48 hours arteries were dissected from the musculature and perivascular fat, cut into 5 mm sections and analyzed by Liquid Chromatography/Mass Spectrometry against tacrolimus calibration standards containing homogenized untreated porcine heart tissue.

`O=[N+]([O-])[O-].[Ag+]` [Silver Nitrate]: the “staining: site of delivery and diffusion” value in series [1] was “delivery outside the external elastic lamina of the vessels and diffusion around the circumference”.

In the case of `C=CC[C@@H]1/C=C(\C)C[C@H](C)C[C@H](OC)[C@H]2O[C@@](O)(C(=O)C(=O)N3CCCC[C@H]3C(=O)O[C@H](/C(C)=C/[C@@H]3CC[C@@H](O)[C@H](OC)C3)[C@H](C)[C@@H](O)CC1=O)[C@H](C)C[C@@H]2OC` [tacrolimus], in series [2] (48 hours after injection, full length of the artery), the “persistence of drug in the artery” value is “detectable”. For the same compound, the “subjects with distribution to the entire coronary tree” value in series [2] (periadventitial delivery, 48 hours) is recorded as 8/8. The concentration at 48 h in series [2] (mean concentration in the remaining segments) turned out to be 26 ng/g; in series [2] (mean concentration within 1 cm of known injection sites) it was 64 ng/g; in series [2] (mean level of tacrolimus in confirmed injected arteries), 55 ng/g; in series [2] (mean level of tacrolimus in uninjected arteries of treated hearts) it was 27 ng/g.
